Experimental data from the NIST ThermoML archive (doi:10.1021/je049585t).

Experiment: molar heat capacity at constant pressure
Settings: 101.33 kPa

CC1=CCC2C(=O)OC(=O)C2C1 (stereo not given) [4-methyl-cyclohex-4-ene-1, 2-dicarboxylic acid anhydride]
Settings	molar heat capacity at constant pressure [J/K/mol]
80 K, Crystal	65.23
80.45 K, Crystal	63.17
81.95 K, Crystal	63.26
83.53 K, Crystal	63.39
85 K, Crystal	64.37
85.17 K, Crystal	63.65
86.78 K, Crystal	64.05
88.38 K, Crystal	64.45
89.95 K, Crystal	65.12
90 K, Crystal	64.76
91.5 K, Crystal	65.63
93.03 K, Crystal	66.26
94.54 K, Crystal	66.83
95 K, Crystal	66.05
96.03 K, Crystal	67.49
97.51 K, Crystal	68.15
98.97 K, Crystal	68.87
100 K, Crystal	67.97
100.41 K, Crystal	69.38
101.84 K, Crystal	69.93
103.26 K, Crystal	70.47
104.66 K, Crystal	71.22
105 K, Crystal	70.28
106.05 K, Crystal	71.84
107.43 K, Crystal	72.36
108.8 K, Crystal	72.92
110 K, Crystal	72.81
110.15 K, Crystal	73.65
111.5 K, Crystal	74.07
112.83 K, Crystal	74.66
114.15 K, Crystal	75.18
115 K, Crystal	75.44
115.47 K, Crystal	75.87
116.77 K, Crystal	76.33
118.07 K, Crystal	76.91
119.35 K, Crystal	77.54
120 K, Crystal	78.06
120.63 K, Crystal	78.18
121.9 K, Crystal	78.77
123.16 K, Crystal	79.3
124.42 K, Crystal	79.75
125 K, Crystal	80.62
125.66 K, Crystal	80.33
126.9 K, Crystal	80.87
128.14 K, Crystal	81.35
129.36 K, Crystal	81.93
130 K, Crystal	83.08
130.58 K, Crystal	82.44
131.83 K, Crystal	82.95
132.96 K, Crystal	83.78
134.16 K, Crystal	84.15
135 K, Crystal	85.43
135.38 K, Crystal	84.59
136.59 K, Crystal	85.28
137.72 K, Crystal	85.94
138.93 K, Crystal	86.2
140 K, Crystal	87.67
140.14 K, Crystal	86.69
141.27 K, Crystal	86.97
142.48 K, Crystal	87.65
143.6 K, Crystal	88.22
144.72 K, Crystal	88.9
145 K, Crystal	89.84
145.85 K, Crystal	89.28
146.98 K, Crystal	89.92
148.1 K, Crystal	90.42
149.22 K, Crystal	90.83
150 K, Crystal	91.95
150.43 K, Crystal	91.65
151.55 K, Crystal	91.97
153.01 K, Crystal	92.74
154.67 K, Crystal	93.61
155 K, Crystal	94.06
156.32 K, Crystal	94.64
158.04 K, Crystal	95.26
159.69 K, Crystal	95.96
160 K, Crystal	96.19
161.35 K, Crystal	96.78
162.97 K, Crystal	97.8
164.62 K, Crystal	98.83
165 K, Crystal	98.39
166.25 K, Crystal	99.65
167.8 K, Crystal	100.5
169.46 K, Crystal	101.34
170 K, Crystal	100.7
171.37 K, Crystal	102.49
173.61 K, Crystal	103.54
175 K, Crystal	103.17
175.85 K, Crystal	104.8
178.12 K, Crystal	106.11
180 K, Crystal	105.81
180.28 K, Crystal	107.31
182.43 K, Crystal	108.56
184.61 K, Crystal	109.77
185 K, Crystal	108.67
186.68 K, Crystal	111.17
188.84 K, Crystal	112.46
190 K, Crystal	111.75
190.92 K, Crystal	113.85
192.99 K, Crystal	115.1
195 K, Crystal	115.07
195.07 K, Crystal	116.42
197.13 K, Crystal	117.72
199.15 K, Crystal	118.98
200 K, Crystal	118.62
201.22 K, Crystal	120.78
203.2 K, Crystal	121.75
205 K, Crystal	122.4
205.18 K, Crystal	123.46
207.19 K, Crystal	124.73
209.14 K, Crystal	126.14
210 K, Crystal	126.39
211.09 K, Crystal	127.51
213.03 K, Crystal	128.87
214.97 K, Crystal	130.45
215 K, Crystal	130.57
216.9 K, Crystal	132.32
218.84 K, Crystal	133.96
220 K, Crystal	134.91
220.75 K, Crystal	135.72
222.7 K, Crystal	137.13
224.58 K, Crystal	138.58
225 K, Crystal	139.36
226.56 K, Crystal	139.98
228.41 K, Crystal	141.35
230 K, Crystal	143.9
230.19 K, Crystal	142.86
232.01 K, Crystal	144.4
233.86 K, Crystal	145.93
235 K, Crystal	148.46
235.74 K, Crystal	147.41
237.59 K, Crystal	149.22
239.37 K, Crystal	150.76
240 K, Crystal	153.02
241.16 K, Crystal	152.29
242.94 K, Crystal	153.83
244.82 K, Crystal	155.45
245 K, Crystal	157.52
246.54 K, Crystal	157.09
248.36 K, Crystal	158.9
250 K, Crystal	161.95
250.17 K, Crystal	160.56
251.99 K, Crystal	162.22
253.81 K, Crystal	163.9
255 K, Crystal	166.26
255.54 K, Crystal	165.36
257.36 K, Crystal	167.29
259.09 K, Crystal	168.63
260 K, Crystal	170.45
260.82 K, Crystal	170.5
262.61 K, Crystal	172.01
264.31 K, Crystal	173.55
265 K, Crystal	174.52
266.12 K, Crystal	175.31
267.82 K, Crystal	177.02
269.53 K, Crystal	178.52
270 K, Crystal	178.5
271.28 K, Crystal	180.17
273.31 K, Crystal	181.94
275 K, Crystal	182.44
275.35 K, Crystal	183.81
277.03 K, Crystal	185.45
278.73 K, Crystal	187.1
280 K, Crystal	186.41
280.36 K, Crystal	188.67
282.45 K, Crystal	190.66
284.97 K, Crystal	193.03
285 K, Crystal	190.55
287.46 K, Crystal	195.7
289.88 K, Crystal	197.97
290 K, Crystal	195
292.31 K, Crystal	200.61
294.67 K, Crystal	203.16
295 K, Crystal	199.98
297.1 K, Crystal	205.53
298.15 K, Crystal	203.5
299.37 K, Crystal	207.64
300 K, Crystal	205.75
301.81 K, Crystal	210.9
304.16 K, Crystal	213.44
305 K, Crystal	212.62
306.51 K, Crystal	215.82
308.81 K, Crystal	218.8
310 K, Crystal	221
311.13 K, Crystal	221.26
313.43 K, Crystal	224.91
315 K, Crystal	231.34
315.72 K, Crystal	227.54
317.98 K, Crystal	230.32
320 K, Crystal	244.2
320.22 K, Crystal	234.71
322.44 K, Crystal	240.42
324.6 K, Crystal	251.25
325 K, Crystal	260.21
326.7 K, Crystal	266.66
328.7 K, Crystal	300.96
330 K, Crystal	280.12
337.34 K, Liquid	308.51
339.25 K, Liquid	307.6
340 K, Liquid	306.94
341.15 K, Liquid	306.76
343.06 K, Liquid	306.95
344.96 K, Liquid	308.07
345 K, Liquid	308.18
346.86 K, Liquid	309.65
348.76 K, Liquid	311.73
350 K, Liquid	313.29
350.67 K, Liquid	314.26
352.57 K, Liquid	316.99
354.47 K, Liquid	319.51
355 K, Liquid	320.24
356.36 K, Liquid	322.01
358.26 K, Liquid	324.95
360 K, Liquid	327.6
360.13 K, Liquid	327.9
